Patent US11304965B2, “Flavonoid compositions and related methods” (INSTITUTO DE INVESTIGACIONES CIENTIFICAS Y SERVICIOS DE …, priority 2017, dated 2022)

Legend:
Format in all cases: cell-based
[1] = target: T1, human AT2 receptor (Homo sapiens, UniProt P50052); assay: Aequorin bioluminescence intracellular calcium assay, CHO-AEQ-AT2 cells; conditions: CHO-AEQ cells expressing AT2; samples 100 μg/ml; compared with angiotensin II; FIG. 19
T1 construct: pcDNA3.1+ plasmid DNA into which had been inserted the coding region for human AT1, AT2, or ETB receptor; expressed in transfected cells; host or cells: CHO-AEQ (Chinese hamster ovary cells stably expressing aequorin), transient transfection with Fugene HD
T1 sequence (P50052 1-363): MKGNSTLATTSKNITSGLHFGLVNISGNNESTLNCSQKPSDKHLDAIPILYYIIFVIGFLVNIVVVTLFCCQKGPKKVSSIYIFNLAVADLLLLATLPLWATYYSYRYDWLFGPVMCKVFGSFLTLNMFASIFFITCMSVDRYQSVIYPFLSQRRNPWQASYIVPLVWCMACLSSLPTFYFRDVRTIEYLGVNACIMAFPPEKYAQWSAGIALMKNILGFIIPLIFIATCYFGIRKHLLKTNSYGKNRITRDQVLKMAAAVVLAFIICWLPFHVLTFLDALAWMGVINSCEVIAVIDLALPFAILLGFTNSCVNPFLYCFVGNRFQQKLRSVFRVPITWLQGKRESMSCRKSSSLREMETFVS
Description: (§1) To investigate the vasculoprotective, neuroprotective, and/or antihypertensive properties of Cecropia extracts, Chinese hamster ovary cells that had been stably transfected with aequorin (CHO-AEQ cells) were transiently transfected with various G-protein coupled receptors.
(§2) More particularly, CHO-AEQ cells were cultured in Dulbecco's Modified Eagle's Medium (DMEM) containing 10% fetal bovine serum as previously described (Vanderheyden et al., 126 Br J Pharmacol 1057-1065 (1999)). At 75% confluency, these cells were transiently transfected with pcDNA3.1+ plasmid DNA into which had been inserted the coding region for human AT1, AT2, or ETB receptor. The transient transfection was performed with Fugene HD® following the manufacturers' instructions (2 μg DNA to 7 μl Fugene HD® in Opti-MEM® medium. After transfection, the cells were cultured for an additional day, after which they were harvested and loaded with coelenterazine-h.
(§3) Intracellular calcium can be detected based on the interaction of calcium ions with the calcium binding bioluminescent complex aequorin. Upon calcium binding, aequorin oxidizes coelenterazine-h into coelenteramide with production of CO2 and emission of light (466 nm) (Le Poul et al., 7 J Biomol Screen 57-65 (2002). The CHO-AEQ cells that had been transiently transfected with human AT1, human AT2 or human ETB receptors were used in a bioluminescence assay to evaluate whether—and to what extent—material isolated from Cecropia obtusifolia could perturb G-protein coupled receptor(s).
(§4) Confluent CHO-AEQ cells that were grown and transfected in 75 cm^2 culture flasks were harvested by a brief treatment with a trypsin/EDTA solution, centrifuged, and resuspended in DMEM-F12 cell culture medium containing 0.1% BSA and denoted as assay buffer, at a cell density of 2.5×10^6 cells/ml. Subsequently, coelenterazine-h was added to the cell suspension to a final concentration of 5 μM. Cells were then incubated between 14 h and 18 h at room temperature in the dark under gentle shaking. After this loading step, 15 ml of assay buffer was added to the cells and then centrifuged for 7 min at 1100 rpm in a swinging bucket centrifuge. The resulting cell pellets were gently resuspended in assay buffer containing 1 μM coelenterazine-h at a cell density of 5×10^5 cells/ml. After a further incubation of 1.5 h at room temperature, the cell suspension was distributed at 100 μl/well in white Cellstar 96-well plates.
To assess the activity of the compounds derived from Cecropia obtusifolia extracts, lyophilized crude extract (and compounds that had been identified in the extract) were dissolved in DMSO at 1 mg/ml, and then further diluted in assay buffer to 100 μg/ml (final concentration) (Caballero-George et al., 4 Curr. Trends Biotechnol Pharm 881-899 (2010)). A […] was then added to each well containing the transiently transfected cells. For comparison, control peptides were diluted in assay buffer to a final concentration of 0.1 μM angiotensin II or 10 nM endothelin-1. These control peptides are known to cause a transient rise in cytosolic calcium. The agonist solutions were loaded in the cell injector of a Victor spectrophotometer, and a 96-well plate was inserted.
(§5) Measurements were initiated by injecting 50 μl solution/well, and the bioluminescence was recorded every 200 ms for 120 cycles. To account for slight variations in cell number, a final concentration of 10 μM ATP was added by a second injector to the cells (50 μl/well) and the resulting response was measured.
The effects were quantified by calculation of the area under the curves by integration of the obtained transient responses using GraphPad Prism 5™. The activation of the AT1, AT2, or ETB receptors was expressed as a fractional response. This is obtained by dividing the agonist response by the sum of the agonist and ATP response for each well (i.e., agonist response/(ATP+agonist response)). […]

[2] = target: T2, human AT1 receptor (Homo sapiens, UniProt P30556); assay: Aequorin bioluminescence intracellular calcium assay, CHO-AEQ-AT1 cells (inhibition of angiotensin II); conditions: CHO-AEQ cells expressing AT1; 100 nM angiotensin II; samples 100 μg/ml; compared with losartan; FIG. 21
T2 construct: pcDNA3.1+ plasmid DNA into which had been inserted the coding region for human AT1, AT2, or ETB receptor; expressed in transfected cells; host or cells: CHO-AEQ (Chinese hamster ovary cells stably expressing aequorin), transient transfection with Fugene HD
T2 sequence (P30556 1-359): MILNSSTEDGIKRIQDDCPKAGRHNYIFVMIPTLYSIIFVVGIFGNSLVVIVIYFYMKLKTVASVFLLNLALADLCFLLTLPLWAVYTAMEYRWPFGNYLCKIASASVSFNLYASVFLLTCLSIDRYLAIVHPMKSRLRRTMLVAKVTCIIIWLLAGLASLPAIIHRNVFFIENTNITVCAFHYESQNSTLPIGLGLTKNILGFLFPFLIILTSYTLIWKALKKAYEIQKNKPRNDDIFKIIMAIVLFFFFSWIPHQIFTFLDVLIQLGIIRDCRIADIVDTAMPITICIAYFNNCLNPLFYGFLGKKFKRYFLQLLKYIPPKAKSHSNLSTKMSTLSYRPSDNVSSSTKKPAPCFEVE
Description: as §1, §2, §3, §4
To assess the activity of the compounds derived from Cecropia obtusifolia extracts, lyophilized crude extract (and compounds that had been identified in the extract) were dissolved in DMSO at 1 mg/ml, and then further diluted in assay buffer to 100 μg/ml (final concentration) (Caballero-George et al., 4 Curr. Trends Biotechnol Pharm 881-899 (2010)). A […] was then added to each well containing the transiently transfected cells. […]
as §5
(§6) The effects were quantified by calculation of the area under the curves by integration of the obtained transient responses using GraphPad Prism 5™. The activation of the AT1, AT2, or ETB receptors was expressed as a fractional response. […]

[3] = target: T3, human ETB receptor (Homo sapiens, UniProt P24530); assay: Aequorin bioluminescence intracellular calcium assay, CHO-AEQ-ETB cells; conditions: CHO-AEQ cells expressing ETB; samples 100 μg/ml; compared with 100 nM endothelin 1; FIG. 20
T3 construct: pcDNA3.1+ plasmid DNA into which had been inserted the coding region for human AT1, AT2, or ETB receptor; expressed in transfected cells; host or cells: CHO-AEQ (Chinese hamster ovary cells stably expressing aequorin), transient transfection with Fugene HD
T3 sequence (P24530 27-442): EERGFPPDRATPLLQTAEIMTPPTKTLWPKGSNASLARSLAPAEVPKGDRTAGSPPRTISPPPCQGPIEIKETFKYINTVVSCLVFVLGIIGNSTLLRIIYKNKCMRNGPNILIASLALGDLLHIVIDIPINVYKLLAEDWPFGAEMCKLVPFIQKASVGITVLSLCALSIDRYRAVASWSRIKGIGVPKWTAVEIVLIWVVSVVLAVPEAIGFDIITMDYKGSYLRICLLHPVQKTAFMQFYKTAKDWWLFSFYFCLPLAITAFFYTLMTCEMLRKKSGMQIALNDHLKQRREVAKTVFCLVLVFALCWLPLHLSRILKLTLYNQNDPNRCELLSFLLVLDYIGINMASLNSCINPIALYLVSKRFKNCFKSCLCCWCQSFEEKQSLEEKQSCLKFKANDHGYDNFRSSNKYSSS
Description: as §1
More particularly, CHO-AEQ cells were cultured in Dulbecco's Modified Eagle's Medium (DMEM) containing 10% fetal bovine serum as previously described (Vanderheyden et al., 126 Br J Pharmacol 1057-1065 (1999)). At 75% confluency, these cells were transiently transfected with pcDNA3.1+ plasmid DNA into which had been inserted the coding region for human AT1, AT2, or ETB receptor. […]
Intracellular calcium can be detected based on the interaction of calcium ions with the calcium binding bioluminescent complex aequorin. […]
as §5, §6

| Molecule | activation of the AT2 receptor (cytoplasmic calcium release) [1] | inhibition of the agonistic effect of angiotensin II on the AT1 receptor [2] | cytoplasmic calcium release after binding to the ETB receptors [3] |
| --- | --- | --- | --- |
| O=C(/C=C/c1ccc(O)c(O)c1)O[C@@H]1C[C@](O)(C(=O)O)C[C@@H](O)[C@H]1O [Compound P2, chlorogenic acid] | approximately half of the activity of the extract | less than half of the effect of Fraction 3-4 | – |
| O=c1cc(-c2ccc(O)c(O)c2)oc2cc(O)c(C3OC(CO)C(O)C(O)C3OC3OCC(O)C(O)C3O)c(O)c12 (stereo not drawn) [Compound P4, isoorientin-2″-O-xyloside] | approximately half of the activity of the extract | less than half of the effect of Fraction 3-4 | – |
| O=c1cc(-c2ccc(O)cc2)oc2cc(O)c(C3OC(CO)C(O)C(O)C3OC3OC(CO)C(O)C(O)C3O)c(O)c12 (stereo not drawn) [Compound P7, isovitexin-2″-O-glucoside] | approximately half of the activity of the extract | less than half of the effect of Fraction 3-4 | – |
| O=c1cc(-c2ccc(O)cc2)oc2cc(O)c(C3OC(CO)C(O)C(O)C3OC3OCC(O)C(O)C3O)c(O)c12 (stereo not drawn) [Compound P8, isovitexin-2″-O-xyloside] | approximately half of the activity of the extract | less than half of the effect of Fraction 3-4 | – |
| CC1OC(OC2C(c3c(O)cc4oc(-c5ccc(O)cc5)cc(=O)c4c3O)OC(CO)C(O)C2O)C(O)C(O)C1O (stereo not drawn) [Compound P9, isovitexin-2″-O-rhamnoside] | approximately half of the activity of the extract | less than half of the effect of Fraction 3-4 | – |
| isovitexin-O-xyloside [Compound P6] | approximately half of the activity of the extract | – | the most active sample tested |
